We go through two compounds from US20030212104A1, “Treatment of diabetes and diabetic complications with NHE-1 inhibitors” (Pfizer Inc., priority 2002, published 2003).

This experiment has as its system diabetic ob/ob mice. Kind of experiment: Antidiabetic effect in diabetic ob/ob mice (plasma glucose, insulin, triglyceride). The format is in vivo. An excerpt:
Five to eight week old male C57BLU6J-ob/ob mice (obtained from Jackson Laboratory, Bar Harbor, Me.) are housed five per cage under standard animal care practices. After a one week acclimation period, the animals are weighed and 25 microliters of blood are collected from the retro-orbital sinus prior to any treatment. The blood sample is immediately diluted 1:5 with saline containing 0.025% sodium heparin, and held on ice for metabolite analysis. Animals are assigned to treatment groups so that each group has a similar mean for plasma glucose concentration. After group assignment, animals are dosed orally each day for four days with the vehicle consisting of either: (1) 0.25% w/v methyl cellulose in water without pH adjustment; or (2) 0.1% Pluronic® P105 Block Copolymer Surfactant (BASF Corporation, Parsippany, N.J.) in 0.1% saline without pH adjustment. On day 5, the animals are weighed again and then dosed orally with a test compound or the vehicle alone. All compounds are administered in vehicle consisting of either: (1) 0.25% w/v methyl cellulose in water; or 3) neat PEG 400 without pH adjustment; (2) 10% DMSO/O.1% Pluronic® in 0.1% saline without pH adjustment; or 3) neat PEG 400 without pH adjustment. The animals are then bled from the retro-orbital sinus three hours later for determination of blood metabolite levels. The freshly collected samples are centrifuged for two minutes at 10,000×g at room temperature. The supernatant is analyzed for glucose, for example, by the Abbott VP™ (Abbott Laboratories, Diagnostics Division, Irving, Tex.) and VP Super System® Autoanalyzer (Abbott Laboratories, Irving, Tex.), or by the Abbott Spectrum CCX™ (Abbott Laboratories, Irving, Tex.) using the A-Gent™ Glucose-UV Test reagent system (Abbott Laboratories, Irving, Tex.) (a modification of the method of Richterich and Dauwalder, Schweizerische Medizinische Wochenschrift, 101: 860 (1971)) (hexokinase method) using a 100 mg/dl standard. Plasma glucose is then calculated by the equation: Plasma glucose (mg/dl)=Sample value×8.14
where 8.14 is the dilution factor, adjusted for plasma hematocrit (assuming the hematocrit is 44%).
Hypoglycemic activity of the test compounds is determined by statistical analysis (unpaired t-test) of the mean plasma glucose concentration between the test compound group and vehicle-treated group on day 5. The above assay carried out with a range of doses of a test compound allows the determination of an approximate minimal effective dose (MED) value for the in vivo reduction of plasma glucose concentration.
Five to eight week old male C57BL/6J-ob/ob mice (obtained from Jackson Laboratory, Bar Harbor, Me.) are housed five per cage under standard animal care practices and fed standard rodent diet ad libitum. After a one week acclimation period, the animals are weighed and 25 microliters of blood are collected from the retro-orbital sinus prior to any treatment. The blood sample is immediately diluted 1:5 with saline containing 0.025% sodium heparin, and held on ice for plasma glucose analysis. Animals are assigned to treatment groups so that each group has a similar mean for plasma glucose concentration. The compound to be tested is administered by oral gavage as an about 0.02% to 2.0% solution (weight/volume (w/v)) in either (1) 10% DMSO/0.1% Pluronic® P105 Block Copolymer Surfactant (BASF Corporation, Parsippany, N.J.) in 0.1% saline without pH adjustment or (2) 0.25% w/v methylcellulose in water without pH adjustment. Alternatively, the compound to be tested can be administered by oral gavage dissolved in or in suspension in neat PEG 400. Single daily dosing (s.i.d.), twice daily dosing (b.i.d.) or other dosing regimen is maintained for 1 to, for example, 15 days. Control mice receive the 10% DMSO/0.1% Pluronic® P105 in 0.1 % saline without pH adjustment or the 0.25% w/v methylcellulose in water without pH adjustment, or the neat PEG 400 without pH adjustment. […]

The mark [1] stands for this setting: Study 1 conclusion: diabetic ob/ob mice, 20 mg/kg qd for five days.
Setting [2] is: Study 3 conclusion: diabetic ob/ob mice, 20 mg/kg bid for seven days.

Consider `N=C(N)NC(=O)c1cnn(-c2cccc3ncccc23)c1C1CC1` [[5-cyclopropyl-1-(quinolin-5-yl)-1H-pyrazole-4-carbonyl]guanidine], for which the “Day 5, 3h post-dose plasma insulin concentration” value (Study 1: ob/ob mice n=10, 20 mg/kg qd for five days, mean ± SD, vehicle control 57.7 ± 24.5, p = 0.000331) came to 20.5 ± 10.3 µg/L. Further, under “Study 1: ob/ob mice n=10, 20 mg/kg qd for five days, mean ± SD, vehicle control 482 ± 139, p = 0.0498”, the “Day 5, 3h post-dose plasma glucose concentration” value was determined as 371 ± 90 mg/dL. Also, under setting [1], the “Plasma glucose concentration compared to the vehicle control group” value is on record as “significantly reduced” and the “Plasma insulin concentration compared to the vehicle control group” value is “significantly reduced”.
For “[1-(2-trifluoromethyl-4-chlorophenyl)-5-cyclopropyl-1H-pyrazole-4-carbonyl]-guanidine”, the “Day 5, 3h post-dose plasma insulin concentration” value (Study 2: ob/ob mice n=10, 20 mg/kg bid for four days plus AM dose on fifth day, mean ± SD, vehicle control 10.0 ± 6.8) turned out to be 11.1 ± 9.0 µg/L. In addition, the “Day 5, 3h post-dose plasma glucose concentration” value (Study 2: ob/ob mice n=10, 20 mg/kg bid for four days plus AM dose on fifth day, mean ± SD, vehicle control 322 ± 72, p = 0.0003) turned out to be 195 ± 50 mg/dL. Further, the “Plasma glucose concentration compared to the vehicle control group” value (Study 2 conclusion: diabetic ob/ob mice, 20 mg/kg bid for four days) is on record as “significantly reduced”. Further, where the note is “Study 3: ob/ob mice n=15, 20 mg/kg bid for seven days plus AM dose on eighth day, mean ± SD, vehicle control 167 ± 44, p = 0.0002”, the “Day 8, 3h post-dose plasma triglyceride concentration” value was 107 ± 24 mg/dL. Besides, where the note is “Study 3: ob/ob mice n=15, 20 mg/kg bid for seven days plus AM dose on eighth day, mean ± SD, vehicle control 397 ± 134, p = 0.0001”, the “Day 8, 3h post-dose plasma glucose concentration” value amounted to 204 ± 69 mg/dL. For the same compound, under setting [2], the “Plasma glucose concentration compared to the vehicle control group” value is “significantly reduced”, the “Plasma insulin concentration compared to the vehicle control group” value is “significantly reduced” and the “Plasma triglyceride concentration compared to the vehicle control group” value is given as “significantly reduced”.
